Consider twelve compounds from patent US4578475A, “Novel D-homosteroids” (Hoffman-La Roche Inc., priority 1983, dated 1986).

For assay [1], the system named is pregnant female albino rats. As to the kind of experiment: Interceptive activity in rats (pregnant rats, serum progesterone, living foetuses, resorptions, vacant implantation positions). It counts as in vivo, rat. Conditions: for Serum progesterone 3 h later: orally or intramuscularly on 10th day of pregnancy; for Living foetuses, n (number of animals) / Living foetuses, x (mean of the observations) / Resorption, n (number of animals) / Resorption, x (mean of the observations) / Vacant implantation positions, n (number of animals) / Vacant implantation positions, x (mean of the observations): orally or intramuscularly on 10th day, killed on 15th day. The source says: Female albino rats were kept under controlled conditions, the synchronicity of the cycle being monitored by daily vaginal douching and subsequent cytological investigation. At proestrus the animals were brought together with male, fertile rats. The successful insemination was checked on the following morning and this day was denoted as the 1st day of the pregnancy. The pregnant animals then received the test substances as a suspension in a standard vehicle (0.5% carboxymethylcellulose, 0.4% TWEEN 80, 0.9% benzyl alcohol and 0.9% NaCl in water) orally or intramuscularly on the 10th day. The animals were killed on the 15th day. The blood was collected and the uteri were investigated for living foetuses, resorptions and vacant implantation positions. The serum hormone concentrations were determined radio-immunologically.

Assay [2] addresses T1, Δ^5 -isomerase/3β-hydroxysteroid dehydrogenase (Rattus norvegicus, UniProt P22071).
T1 construct: from tissue; host or cells: rat ovary microsomes
T1 sequence (P22071 1-373): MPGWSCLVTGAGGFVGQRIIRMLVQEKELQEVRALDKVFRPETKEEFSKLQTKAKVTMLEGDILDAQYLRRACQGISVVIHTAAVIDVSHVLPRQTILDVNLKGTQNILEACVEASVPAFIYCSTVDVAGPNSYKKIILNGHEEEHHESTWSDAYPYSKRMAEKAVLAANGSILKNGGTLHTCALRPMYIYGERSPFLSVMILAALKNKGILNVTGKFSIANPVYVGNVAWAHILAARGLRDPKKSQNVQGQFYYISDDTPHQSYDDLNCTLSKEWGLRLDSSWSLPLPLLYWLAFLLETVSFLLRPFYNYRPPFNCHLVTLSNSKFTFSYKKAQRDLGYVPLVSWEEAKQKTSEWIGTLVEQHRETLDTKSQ
As to the kind of experiment: Inhibition of the formation of progesterone in vitro (14C-pregnenolone, rat ovary microsomes). The conditions noted are these: 0.5 μg protein, 250 pmol 14C-pregnenolone, 0.4 mg NAD+, 30 minutes, 37° C., pH 7.4, read-out: IC50 (concentration of the test substance at which the enzyme activity amounts to 50% of the maximum value). It counts as biochemical. How it is done:
The activity of the D-homosteroids of formula I as inhibitors of Δ^5 -isomerase/3β-hydroxysteroid dehydrogenase was determined in the following experimental procedures:
Rat overies were homogenized in 0.05 M Na2 HPO4 buffer (pH 7.2) which contained 0.25 M sucrose and 0.05 M dithiothreitol. The microsomes obtained after centrifugation were suspended in 0.05 M Na2 HPO4 buffer (pH 7.4) which contained 0.001 M EDTA. This microsome preparation was assayed firstly for enzymatic activity by measuring the increase of the optical density at 340 nm by the reduction of NAD^+. Thereafter, aliquot portions (0.5 μg of protein) were incubated in 1.8 ml of buffer for 30 minutes at 37° C. with 250 pmol of ^14 C-pregnelonone, 0.4 mg of NAD^+ and different concentrations of the test substance dissolved in the minimum amounts of dimethyl sulphoxide. The reaction was interrupted by the addition of methylene chloride. After extraction and evaporation of the solvent, the radioactive metabolites were separated on silica gel-aluminium plates with benzene/acetone (85:15). The radioactivity was measured by means of a scintillation counter.

Each structure is given as a SMILES string.

Take `CC1(C)C2=CC[C@@H]3[C@H](CC[C@@]4(C)[C@H]3CC=C[C@]4(C)O)[C@@]2(C)Cc2cnoc21` [Example 2, 4,4,17a-trimethyl-D-homo-androsta-2,5,16-trieno[2,3-d]isoxazol-17aβ-ol]: in assay [1] (3.75 mg/kg), the “Serum progesterone 3 h later” value was determined as 87 ng/mL; the “Living foetuses, n (number of animals)” value is recorded as 3; the “Living foetuses, x (mean of the observations)” value (from here on “Living foetuses, x”) is recorded as 12; the “Resorption, n (number of animals)” value worked out at 2. In addition, in assay [1] (3.75 mg/kg), the “Resorption, x (mean of the observations)” value is listed as 9; the “Vacant implantation positions, n (number of animals)” value (“Vacant implantation positions, n” for short) is 2; the “Vacant implantation positions, x (mean of the observations)” value (“Vacant implantation positions, x” below) turned out to be 13. In assay [1] (7.5 mg/kg), the “Serum progesterone 3 h later” value came to 39 ng/mL; the “Living foetuses, n (number of animals)” value was found to be 0; the “Resorption, n (number of animals)” value is 0; the “Vacant implantation positions, n” value came to 6. For the same compound, the “Vacant implantation positions, x” value in assay [1] (7.5 mg/kg) worked out at 13. In assay [1] (15 mg/kg), the “Serum progesterone 3 h later” value was determined as 35 ng/mL; the “Living foetuses, n (number of animals)” value worked out at 0; the “Resorption, n (number of animals)” value is reported as 0; the “Vacant implantation positions, n” value is listed as 6. Moreover, the “Vacant implantation positions, x” value in assay [1] (15 mg/kg) amounted to 12.

For the compound `CC1(C)C2=CC[C@@H]3[C@H](CC[C@@]4(C)[C@H]3CCC[C@]4(C)O)[C@@]2(C)Cc2cnoc21` [Example 3, 4,4,17a-trimethyl-D-homo-androsta-2,5-dieno[2,3-d]-isoxazol-17aβ-ol], in assay [1] (7.5 mg/kg), the “Serum progesterone 3 h later” value turned out to be 25 ng/mL; the “Living foetuses, n (number of animals)” value was 4; the “Living foetuses, x” value amounted to 9; the “Resorption, n (number of animals)” value stood at 5. Also, in assay [1] (7.5 mg/kg), the “Resorption, x (mean of the observations)” value came out at 6; the “Vacant implantation positions, n” value amounted to 2; the “Vacant implantation positions, x” value turned out to be 3. Also, in assay [1] (15 mg/kg), the “Serum progesterone 3 h later” value was found to be 29 ng/mL; the “Living foetuses, n (number of animals)” value is 4; the “Living foetuses, x” value is 9; the “Resorption, n (number of animals)” value was 6. In assay [1] (15 mg/kg), the “Resorption, x (mean of the observations)” value stood at 3; the “Vacant implantation positions, n” value was found to be 3; the “Vacant implantation positions, x” value was found to be 13.

On to `CC1(C)C2=CC[C@H]3[C@@H]4CC=C[C@H](O)[C@@]4(C)CC[C@@H]3[C@@]2(C)Cc2cn[nH]c21` [Example 5, 4,4-dimethyl-2'H-D-homo-androsta-2,5,16-trieno[3,2-c]pyrazol-17aβ-ol], for which the IC50 in assay [2] is 0.8 nM.

For the compound `CC1(C)C2=CC[C@@H]3[C@H](CC[C@@]4(C)[C@H]3CC=C[C@]4(C)O)[C@@]2(C)Cc2cn[nH]c21` [Example 6, 4,4,17a-trimethyl-2'H-D-homo-androsta-2,5,16-trieno[3,2-c]-pyrazol-17aβ-ol], the IC50 in assay [2] was found to be 0.4 nM.

Turning to `CCCCC1(O)C=CCC2C3CC=C4C(C)(C)c5[nH]ncc5CC4(C)C3CCC21C` [Example 7, 17a-butyl-4,4-dimethyl-2'H-D-homo-androsta-2,5,16-trieno[3,2-c]pyrazol-17aβ-ol], the IC50 in assay [2] was determined as 6 nM.

For `CC(=O)O[C@H]1C=CC[C@H]2[C@@H]3CC=C4C(C)(C)c5nn(C(C)=O)cc5C[C@]4(C)[C@H]3CC[C@]12C` [Example 12, 1'-acetyl-4,4-dimethyl-1'H-D-homo-androsta-5,16-dieno[3,2-c]pyrazol-17aβ-yl acetate], the IC50 in assay [2] was 6 nM.

In the case of `CC1(C)C(=O)[C@H](C#N)C[C@@]2(C)C1=CC[C@@H]1[C@@H]2CC[C@@]2(C)[C@H]1CCC[C@]2(C)O` [Example 14, 17aβ-hydroxy-4,4,17a-trimethyl-3-oxo-D-homo-androst-5-ene-2a-carbonitrile], in assay [1] (7.5 mg/kg), the “Serum progesterone 3 h later” value is 20 ng/mL; the “Living foetuses, n (number of animals)” value is on record as 1; the “Living foetuses, x” value is on record as 3; the “Resorption, n (number of animals)” value is given as 3. For the same compound, in assay [1] (7.5 mg/kg), the “Resorption, x (mean of the observations)” value stood at 12; the “Vacant implantation positions, n” value was 4; the “Vacant implantation positions, x” value amounted to 12. Moreover, in assay [1] (15 mg/kg), the “Serum progesterone 3 h later” value was 20 ng/mL; the “Living foetuses, n (number of animals)” value amounted to 1; the “Living foetuses, x” value came to 12; the “Resorption, n (number of animals)” value came out at 3. Moreover, in assay [1] (15 mg/kg), the “Resorption, x (mean of the observations)” value turned out to be 14; the “Vacant implantation positions, n” value is 4; the “Vacant implantation positions, x” value came out at 13.

With `CC1(C)C(=O)[C@H](C#N)C[C@@]2(C)C1=CC[C@@H]1[C@@H]2CC[C@@]2(C)[C@H]1CC=C[C@]2(C)O` [Example 17, 17aβ-hydroxy-4,4,17a-trimethyl-3-oxo-D-homo-androsta-5,16-diene-2α-carbonitrile], the IC50 in assay [2] worked out at 6.5 nM. Moreover, in assay [1] (3.75 mg/kg), the “Serum progesterone 3 h later” value was 32 ng/mL; the “Living foetuses, n (number of animals)” value is reported as 2; the “Living foetuses, x” value is given as 5; the “Resorption, n (number of animals)” value turned out to be 5. In addition, in assay [1] (3.75 mg/kg), the “Resorption, x (mean of the observations)” value was determined as 11; the “Vacant implantation positions, n” value came to 1; the “Vacant implantation positions, x” value was found to be 13. Besides, in assay [1] (7.5 mg/kg), the “Serum progesterone 3 h later” value is 29 ng/mL; the “Living foetuses, n (number of animals)” value is 0; the “Resorption, n (number of animals)” value was 2; the “Resorption, x (mean of the observations)” value was 15. For the same compound, in assay [1] (7.5 mg/kg), the “Vacant implantation positions, n” value is on record as 4 and the “Vacant implantation positions, x” value is listed as 11.

In the case of `CC1(C)C(=O)[C@H](C#N)C[C@@]2(C)C1=CC[C@@H]1[C@@H]2CC[C@@]2(C)[C@H]1CC=C[C@@]21CCC(=O)O1` [Example 19, 2α-cyano-4,4-dimethyl-3-oxo-D-homo-17aα-pregna-5,16-diene-21,17a-carbolactone], in assay [1] (15 mg/kg), the “Serum progesterone 3 h later” value was determined as 9 ng/mL; the “Living foetuses, n (number of animals)” value stood at 0; the “Resorption, n (number of animals)” value came out at 0; the “Vacant implantation positions, n” value amounted to 8. The “Vacant implantation positions, x” value in assay [1] (15 mg/kg) turned out to be 13.

Consider `CC1(C)C(=O)C(=CNO)C[C@@]2(C)C1=CC[C@@H]1[C@@H]2CC[C@@]2(C)[C@H]1CC=C[C@]2(C)O` [Example 21, 17aβ-hydroxy-2-[(hydroxyamino)methylene]-4,4,17a-trimethyl-D-homo-androsta-5,16-dien-3-one], for which, in assay [1] (7.5 mg/kg), the “Serum progesterone 3 h later” value is 24 ng/mL; the “Living foetuses, n (number of animals)” value stood at 3; the “Living foetuses, x” value was determined as 6; the “Resorption, n (number of animals)” value is 6. Besides, in assay [1] (7.5 mg/kg), the “Resorption, x (mean of the observations)” value is reported as 10; the “Vacant implantation positions, n” value came out at 2; the “Vacant implantation positions, x” value amounted to 10. In assay [1] (15 mg/kg), the “Serum progesterone 3 h later” value is 17 ng/mL; the “Living foetuses, n (number of animals)” value amounted to 1; the “Living foetuses, x” value amounted to 15; the “Resorption, n (number of animals)” value is given as 0. In assay [1] (15 mg/kg), the “Vacant implantation positions, n” value is recorded as 6 and the “Vacant implantation positions, x” value stood at 13.

As to `CC(=O)OC1=C(C#N)C[C@]2(C)[C@H]3CC[C@]4(C)[C@@H](OC(C)=O)C=CC[C@H]4[C@@H]3CC[C@]23O[C@H]13` [Example 22, 3,17aβ-diacetoxy-4α,5α-epoxy-D-homo-5α-androsta-2,16-diene-2-carbonitrile], the IC50 in assay [2] is 0.9 nM.

`C[C@]1(O)C=CC[C@H]2[C@@H]3CC[C@@]45O[C@]4(C)C(=O)[C@H](C#N)C[C@]5(C)[C@H]3CC[C@@]21C` [Example 25, 4α, 5-epoxy-17aβ-hydroxy-4,17a-dimethyl-3-oxo-D-homo-5α-androst-16-ene-2α-carbonitrile]: the IC50 in assay [2] was determined as 7 nM.
